The supplement of paper PMC10307832

How the values were obtained:
Assay in all cases: relative viability (nuclei count vs DMSO), 5 days (fraction); higher = more cells survive
[1] = tested on: EBC-1
In short: (§1)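 For relative viability, nuclei counts in treated wells were divided by those in vehicle wells. Lung cancer cell lines had been pin-tool dosed in 1536-well plates the day after seeding and cultured for 5 days, then fixed and stained in one step (final 0.05% Triton X-100, 1% formaldehyde, 1 ug/ml Hoechst) and imaged at 4×. Doses were one drug alone or a fixed anchor-drug dose plus five library-drug doses (not always all listed) in √10 steps, and values are duplicate-plate medians.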

[2] = tested on: NCI-H1299
In short: as §1

[3] = tested on: NCI-H2023
In short: as §1

[4] = tested on: A549
In short: as §1

[5] = tested on: NCI-H520
In short: as §1

[6] = tested on: NCI-H1703
In short: as §1

[7] = tested on: NCI-H727
In short: as §1

[8] = tested on: Calu-6
In short: as §1

[9] = tested on: IA-LM
In short: as §1

Structure (SMILES): Cc1cn(-c2cc(NC(=O)c3ccc(C)c(Nc4nccc(-c5cccnc5)n4)c3)cc(C(F)(F)F)c2)cn1 [Nilotinib] + C[C@]1(O)C[C@@H](c2nc(-c3ccc4ccc(-c5ccccc5)nc4c3)c3c(N)nccn32)C1 [Linsitinib] (partner 1 µM)
- relative viability ([1]; first compound 0.001 µM): 0.81
- relative viability ([1]; first compound 0.003162 µM): 0.794
- relative viability ([1]; first compound 0.01 µM): 1.14
- relative viability ([1]; first compound 0.03162 µM): 0.791
- relative viability ([1]; first compound 0.1 µM): 0.66
- relative viability ([2]; first compound 0.001 µM): 0.91
- relative viability ([2]; first compound 0.003162 µM): 1.1
- relative viability ([2]; first compound 0.01 µM): 1.28
- relative viability ([2]; first compound 0.03162 µM): 0.957
- relative viability ([2]; first compound 0.1 µM): 0.762
- relative viability ([3]; first compound 0.001 µM): 0.74
- relative viability ([3]; first compound 0.003162 µM): 0.735
- relative viability ([3]; first compound 0.01 µM): 0.798
- relative viability ([3]; first compound 0.03162 µM): 0.666
- relative viability ([3]; first compound 0.1 µM): 0.525
- relative viability ([4]; first compound 0.001 µM): 0.778
- relative viability ([4]; first compound 0.003162 µM): 0.582
- relative viability ([4]; first compound 0.01 µM): 0.767
- relative viability ([4]; first compound 0.03162 µM): 0.535
- relative viability ([4]; first compound 0.1 µM): 0.286
- relative viability ([5]; first compound 0.001 µM): 0.792
- relative viability ([5]; first compound 0.01 µM): 1.2
- relative viability ([5]; first compound 0.03162 µM): 0.91
- relative viability ([5]; first compound 0.1 µM): 0.928
- relative viability ([6]; first compound 0.001 µM): 0.637
- relative viability ([6]; first compound 0.003162 µM): 0.285
- relative viability ([6]; first compound 0.01 µM): 0.343
- relative viability ([6]; first compound 0.03162 µM): 0.218
- relative viability ([6]; first compound 0.1 µM): 0.136
- relative viability ([7]; first compound 0.001 µM): 0.225
- relative viability ([7]; first compound 0.01 µM): 0.368
- relative viability ([7]; first compound 0.03162 µM): 0.275
- relative viability ([7]; first compound 0.1 µM): 0.263
- relative viability ([8]; first compound 0.001 µM): 0.819
- relative viability ([8]; first compound 0.003162 µM): 1.06
- relative viability ([8]; first compound 0.01 µM): 1.06
- relative viability ([8]; first compound 0.03162 µM): 0.809
- relative viability ([8]; first compound 0.1 µM): 0.828
- relative viability ([9]; first compound 0.001 µM): 0.382
- relative viability ([9]; first compound 0.003162 µM): 0.31
- relative viability ([9]; first compound 0.01 µM): 0.634
- relative viability ([9]; first compound 0.03162 µM): 0.346
- relative viability ([9]; first compound 0.1 µM): 0.216

Structure (SMILES): CN1CCN(CCOc2cc(OC3CCOCC3)c3c(Nc4c(Cl)ccc5c4OCO5)ncnc3c2)CC1 [Saracatinib] + CC(C)C[C@H](NC(=O)[C@H](Cc1ccccc1)NC(=O)c1cnccn1)B(O)O [Bortezomib] (partner 0.002 µM)
- relative viability ([1]; first compound 0.02 µM): 0.553
- relative viability ([1]; first compound 0.2 µM): 0.484
- relative viability ([1]; first compound 0.6325 µM): 0.628
- relative viability ([1]; first compound 2 µM): 0.531
- relative viability ([2]; first compound 0.02 µM): 1.05
- relative viability ([2]; first compound 0.2 µM): 1.03
- relative viability ([2]; first compound 0.6325 µM): 1.01
- relative viability ([2]; first compound 2 µM): 1.09
- relative viability ([3]; first compound 0.02 µM): 1.1
- relative viability ([3]; first compound 0.2 µM): 0.902
- relative viability ([3]; first compound 0.6325 µM): 1.05
- relative viability ([3]; first compound 2 µM): 0.906
- relative viability ([5]; first compound 0.02 µM): 0.663
- relative viability ([5]; first compound 0.2 µM): 0.431
- relative viability ([5]; first compound 0.6325 µM): 0.289
- relative viability ([5]; first compound 2 µM): 0.174
- relative viability ([6]; first compound 0.02 µM): 0.304
- relative viability ([6]; first compound 0.2 µM): 0.314
- relative viability ([6]; first compound 0.6325 µM): 0.293
- relative viability ([6]; first compound 2 µM): 0.22
- relative viability ([7]; first compound 0.02 µM): 0.923
- relative viability ([7]; first compound 0.2 µM): 0.535
- relative viability ([7]; first compound 0.6325 µM): 1.09
- relative viability ([7]; first compound 2 µM): 0.506
- relative viability ([8]; first compound 0.02 µM): 0.939
- relative viability ([8]; first compound 0.2 µM): 0.796
- relative viability ([8]; first compound 0.6325 µM): 0.807
- relative viability ([8]; first compound 2 µM): 0.656
- relative viability ([9]; first compound 0.02 µM): 0.87
- relative viability ([9]; first compound 0.6325 µM): 1.31
- relative viability ([9]; first compound 2 µM): 0.909

Structure (SMILES): Cc1csc(=NC2CCCCC2)n1/N=C/c1ccc(O)c(O)c1O [MIM1] + C[C@]1(O)C[C@@H](c2nc(-c3ccc4ccc(-c5ccccc5)nc4c3)c3c(N)nccn32)C1 [Linsitinib] (partner 1 µM)
- relative viability ([1]; first compound 0.2 µM): 0.921
- relative viability ([1]; first compound 0.6325 µM): 0.829
- relative viability ([1]; first compound 2 µM): 0.871
- relative viability ([1]; first compound 6.325 µM): 0.605
- relative viability ([1]; first compound 20 µM): 0.318
- relative viability ([2]; first compound 0.2 µM): 0.98
- relative viability ([2]; first compound 0.6325 µM): 0.93
- relative viability ([2]; first compound 2 µM): 0.963
- relative viability ([2]; first compound 6.325 µM): 0.919
- relative viability ([2]; first compound 20 µM): 0.667
- relative viability ([3]; first compound 0.2 µM): 0.625
- relative viability ([3]; first compound 0.6325 µM): 0.739
- relative viability ([3]; first compound 2 µM): 0.615
- relative viability ([3]; first compound 6.325 µM): 0.482
- relative viability ([3]; first compound 20 µM): 0.443
- relative viability ([4]; first compound 0.2 µM): 0.564
- relative viability ([4]; first compound 0.6325 µM): 0.638
- relative viability ([4]; first compound 2 µM): 0.618
- relative viability ([4]; first compound 6.325 µM): 0.504
- relative viability ([4]; first compound 20 µM): 0.515
- relative viability ([5]; first compound 0.2 µM): 0.983
- relative viability ([5]; first compound 0.6325 µM): 1.1
- relative viability ([5]; first compound 2 µM): 0.921
- relative viability ([5]; first compound 6.325 µM): 0.64
- relative viability ([5]; first compound 20 µM): 0.5
- relative viability ([6]; first compound 0.2 µM): 0.759
- relative viability ([6]; first compound 0.6325 µM): 1.31
- relative viability ([6]; first compound 2 µM): 0.701
- relative viability ([6]; first compound 6.325 µM): 0.144
- relative viability ([6]; first compound 20 µM): 0.095
- relative viability ([7]; first compound 0.2 µM): 0.311
- relative viability ([7]; first compound 0.6325 µM): 0.284
- relative viability ([7]; first compound 2 µM): 0.276
- relative viability ([7]; first compound 6.325 µM): 0.278
- relative viability ([7]; first compound 20 µM): 0.266
- relative viability ([8]; first compound 0.6325 µM): 0.918
- relative viability ([8]; first compound 2 µM): 0.897
- relative viability ([8]; first compound 6.325 µM): 0.561
- relative viability ([8]; first compound 20 µM): 0.286
- relative viability ([9]; first compound 0.2 µM): 0.563
- relative viability ([9]; first compound 0.6325 µM): 0.36
- relative viability ([9]; first compound 2 µM): 0.502
- relative viability ([9]; first compound 6.325 µM): 0.0829
- relative viability ([9]; first compound 20 µM): 0.105
